Experimental data as given in PMC6522510 (Nature Communications, 2019).
Read-outs that look alike come from different tables or passages of the source.

Key:
U937 [1] = experiment: Secondary dose-response HTS, Cell Titer Glo; type: cell-based, human; details: secondary high-throughput screen, U937; for EC50: read-out: average effective concentration, U937
M07e = experiment: Secondary dose-response HTS, Cell Titer Glo; type: cell-based, human; details: secondary high-throughput screen; for EC50: read-out: average effective concentration, M07e
CMK = experiment: Secondary dose-response HTS, Cell Titer Glo; type: cell-based, human; details: CMK; for EC50: read-out: average effective concentration, CMK
CHRF288-11 [2] = experiment: Secondary dose-response HTS, Cell Titer Glo; type: cell-based, human; details: secondary high-throughput screen, CHRF288-11; for EC50: read-out: average effective concentration, CHRF288-11
MV4-11 [3] = experiment: cells; design: species or system AML cell lines (8); Secondary HTS, 10-point dose-response in triplicate, Cell Titer Glo viability, four-parameter fit EC50; details: Homo sapiens, MV4-11, 72 h, read-out: MV4-11
ML2 = experiment: Secondary dose-response HTS, Cell Titer Glo; type: cell-based, human; details: secondary high-throughput screen, ML-2; for EC50: read-out: average effective concentration, ML-2
CMS = experiment: Secondary dose-response HTS, Cell Titer Glo; type: cell-based, human; details: for EC50: read-out: average effective concentration, CMS
MOLM-13 [4] = experiment: cells; design: species or system AML cell lines (8); Secondary HTS, 10-point dose-response in triplicate, Cell Titer Glo viability, four-parameter fit EC50; details: Homo sapiens, MOLM-13, 72 h, read-out: MOLM-13
U937 [5] = experiment: cells; design: species or system AML cell lines (8); Secondary HTS, 10-point dose-response in triplicate, Cell Titer Glo viability, four-parameter fit EC50; details: Homo sapiens, U-937, 72 h, read-out: U937
MV4-11 [6] = experiment: Secondary dose-response HTS, Cell Titer Glo; type: cell-based, human; details: secondary high-throughput screen, MV4-11; for EC50: read-out: average effective concentration, MV4-11
MOLM-13 [7] = experiment: Secondary dose-response HTS, Cell Titer Glo; type: cell-based, human; details: secondary high-throughput screen, MOLM-13; for EC50: read-out: average effective concentration, MOLM-13
CHRF288-11 [8] = experiment: cells; design: species or system AML cell lines (8); Secondary HTS, 10-point dose-response in triplicate, Cell Titer Glo viability, four-parameter fit EC50; details: 72 h, read-out: CHRF288-11
[9] = Homo sapiens, secondary high-throughput screen
[10] = Homo sapiens, HTS, secondary high-throughput screen, CMS
[11] = secondary high-throughput screen
[12] = secondary high-throughput screen, CMS

Molecule | EC50 (U937 [1]; Homo sapiens, U-937) | EC50 (M07e; Homo sapiens, M-07e, M07e) | EC50 (CHRF288-11 [2]; Homo sapiens, HTS) | EC50 (MV4-11 [3]) | EC50 (ML2; Homo sapiens) | EC50 (MOLM-13 [4]) | EC50 (CMK; [9]) | EC50 (CMS; [10]) | average effective concentration, CMK (CMK; [11]) | other results
CC(C)[C@H](C(=O)Nc1ccc(C(=O)NO)cc1)c1ccccc1 [(S)-HDAC-42] | 220 nM | 160 nM | 260 nM | > 10000 nM | 330 nM | > 10000 nM | – | – | – | EC50 (CMK; Homo sapiens): 38 nM; EC50 (CMS; Homo sapiens, HTS): 220 nM
CN(C)Cc1c(C(=O)NCCOc2ccc(C(=O)NO)cc2)oc2ccccc12 [ABEXINOSTAT] | 30 nM | 26 nM | 37 nM | > 10000 nM | 93 nM | > 10000 nM | 12 nM | 34 nM | – | –
COC(=O)[C@]12CCC(C)(C)C[C@H]1[C@H]1C(=O)C=C3[C@@]4(C)C=C(C#N)C(=O)C(C)(C)[C@@H]4CC[C@@]3(C)[C@]1(C)CC2 [BARDOXOLONE METHYL] | 1000 nM | 4000 nM | 940 nM | > 10000 nM | 880 nM | > 10000 nM | 1100 nM | 1100 nM | – | –
Cc1ccc2nc(NCCN)c3ncc(C)n3c2c1 [BMS-345541] | 2300 nM | – | 3800 nM | > 10000 nM | 2200 nM | > 10000 nM | 4700 nM | 5900 nM | – | EC50 (M07e; Homo sapiens, M-07e, […]): 6100 nM
CC(C)C[C@H](NC(=O)[C@@H](NC(=O)c1cccc(-c2ccccc2)n1)[C@@H](C)O)B(O)O [DELANZOMIB] | 2.8 nM | 1 nM | 2.7 nM | > 10000 nM | 1 nM | 2.1 nM | 1.5 nM | 1 nM | – | –
Nc1ccccc1NC(=O)c1ccc(CNC(=O)OCc2cccnc2)cc1 [ENTINOSTAT] | 5600 nM | 1000 nM | 4100 nM | > 10000 nM | 6200 nM | > 10000 nM | 110 nM | 760 nM | – | –
O=c1[nH]c(=O)n([C@H]2C[C@H](O)[C@@H](CO)O2)cc1F [FLOXURIDINE] | – | 8200 nM | 67 nM | – | 21 nM | – | 980 nM | 7900 nM | – | EC50 (U937 [5]): > 10000 nM; EC50 (MV4-11 [6]; Homo sapiens): 130 nM; EC50 (MOLM-13 [7]; Homo sapiens): 23 nM
CCN(CC)Cc1ccc2cc(COC(=O)Nc3ccc(C(=O)NO)cc3)ccc2c1 [GIVINOSTAT] | 55 nM | 31 nM | 61 nM | > 10000 nM | 70 nM | > 10000 nM | 3.7 nM | 86 nM | – | –
Oc1ccc(C2=Cc3ccc(O)cc3OC2)cc1 [IDRONOXIL] | 1900 nM | – | 180 nM | > 10000 nM | 130 nM | > 10000 nM | 88 nM | 440 nM | – | EC50 (M07e; Homo sapiens, M-07e, […]): 1300 nM
NS(=O)(=O)OC[C@@H]1C[C@@H](n2ccc3c(N[C@H]4CCc5ccccc54)ncnc32)C[C@@H]1O [MLN 4924] | 1 nM | 140 nM | 18 nM | > 10000 nM | 1 nM | > 10000 nM | – | – | – | EC50 (CMK; Homo sapiens): 1 nM; EC50 (CMS; Homo sapiens, HTS): 100 nM
CCN(CC)CCCC(C)Nc1c2ccc(Cl)cc2nc2ccc(OC)cc12 (centres unmarked) [QUINACRINE] | 3900 nM | 7700 nM | – | – | > 10000 nM | – | 7700 nM | 5500 nM | – | EC50 (MV4-11 [6]; Homo sapiens): 3800 nM; EC50 (CHRF288-11 [8]): > 10000 nM; EC50 (MOLM-13 [7]; Homo sapiens): 2900 nM
AZ-20 | – | – | – | – | – | – | – | – | Inactive | EC50 (U937 [1]): 4700 nM; EC50 (M07e; M07e): 200 nM; average effective concentration, MV4-11 (MV4-11 [6]): Inactive; EC50 (CHRF288-11 [2]): 2500 nM; EC50 (ML2): 30 nM; EC50 (CMS; [12]): 600 nM; average effective concentration, MOLM-13 (MOLM-13 [7]): Inactive
EB-47 | – | – | – | – | – | – | – | – | Inactive | average effective concentration, U937 (U937 [1]): Inactive; average effective concentration, M07e (M07e; M07e): Inactive; average effective concentration, MV4-11 (MV4-11 [6]): Inactive; average effective concentration, CHRF288-11 (CHRF288-11 [2]): Inactive; average effective concentration, ML-2 (ML2): Inactive; average effective concentration, CMS (CMS; [12]): Inactive; average effective concentration, MOLM-13 (MOLM-13 [7]): Inactive
IC-87114 | – | – | – | – | – | – | – | – | Inactive | average effective concentration, U937 (U937 [1]): Inactive; average effective concentration, M07e (M07e; M07e): Inactive; average effective concentration, MV4-11 (MV4-11 [6]): Inactive; average effective concentration, CHRF288-11 (CHRF288-11 [2]): Inactive; average effective concentration, ML-2 (ML2): Inactive; average effective concentration, CMS (CMS; [12]): Inactive; average effective concentration, MOLM-13 (MOLM-13 [7]): Inactive
LB 42708 | – | – | – | – | – | – | – | – | Inactive | average effective concentration, U937 (U937 [1]): Inactive; average effective concentration, M07e (M07e; M07e): Inactive; EC50 (MV4-11 [6]): 5000 nM; average effective concentration, CHRF288-11 (CHRF288-11 [2]): Inactive; EC50 (ML2): 2300 nM; EC50 (CMS; [12]): 3400 nM; EC50 (MOLM-13 [7]): 2500 nM
MST312 | – | – | – | – | – | – | – | – | Inactive | EC50 (U937 [1]): 2800 nM; EC50 (M07e; M07e): 5200 nM; average effective concentration, MV4-11 (MV4-11 [6]): Inactive; EC50 (CHRF288-11 [2]): 2000 nM; EC50 (ML2): 3700 nM; EC50 (CMS; [12]): 2900 nM; EC50 (MOLM-13 [7]): 1500 nM
PU-H71 | – | – | – | – | – | – | – | – | – | average effective concentration, U937 (U937 [1]): Inactive; average effective concentration, M07e (M07e; M07e): Inactive; EC50 (MV4-11 [6]): 23 nM; EC50 (CMK; [11]): 24 nM; EC50 (CHRF288-11 [2]): 170 nM; EC50 (ML2): 82 nM; EC50 (CMS; [12]): 180 nM; EC50 (MOLM-13 [7]): 19 nM
SCR7 | – | – | – | – | – | – | – | – | Inactive | average effective concentration, U937 (U937 [1]): Inactive; average effective concentration, M07e (M07e; M07e): Inactive; average effective concentration, MV4-11 (MV4-11 [6]): Inactive; average effective concentration, CHRF288-11 (CHRF288-11 [2]): Inactive; average effective concentration, ML-2 (ML2): Inactive; average effective concentration, CMS (CMS; [12]): Inactive; average effective concentration, MOLM-13 (MOLM-13 [7]): Inactive
SN-38 | – | – | – | – | – | – | – | – | – | EC50 (U937 [1]): 37 nM; EC50 (M07e; M07e): 44 nM; EC50 (MV4-11 [6]): 240 nM; EC50 (CMK; [11]): 23 nM; EC50 (CHRF288-11 [2]): 9.49 nM; EC50 (ML2): 2.51 nM; average effective concentration, CMS (CMS; [12]): Inactive; EC50 (MOLM-13 [7]): 5.6 nM
